The target in one data set is Erk2 (Homo sapiens, UniProt P28482). Description: Erk2 alpha kinase assay (cell-free, ALPHA technology). Type of data set: biochemical. As to conditions: 10 μM ATP. The protocol: The inhibitory effect of the compounds according to the invention was tested on various serine/threonine, tyrosine and lipid kinases in enzymatic assays. Recombinant human kinases such as, for example, Erk2, were used in this case, partly as full-length kinases, partly as shortened fragments, but at least consisting of the functional kinase domains. The commercial kinase proteins (Proqinase, Upstate) were used as recombinant fusion proteins with GST (glutathion-S-transferase) or His-Tag. Depending on the type of substrate, the various kinase reactions were quantified by means of suitable ALPHA™ beads (Perkin-Elmer). The substance testing is described in detail hereinafter for the Erk assay. […] a) MAPK-ALPHAs (e.g. […] The fluorescence was detected the following morning in a Envision plate reader (Perkin-Elmer). The %-inhibition values per substance concentration were calculated by means of the following formula from the raw data determined in the Envision plate reader[…]: Eight determinations were made for each control and two for the substance samples. […] The IC50 values were determined using GraphPadPrism.
Sequence of Erk2 (P28482 2-360 limits assumed): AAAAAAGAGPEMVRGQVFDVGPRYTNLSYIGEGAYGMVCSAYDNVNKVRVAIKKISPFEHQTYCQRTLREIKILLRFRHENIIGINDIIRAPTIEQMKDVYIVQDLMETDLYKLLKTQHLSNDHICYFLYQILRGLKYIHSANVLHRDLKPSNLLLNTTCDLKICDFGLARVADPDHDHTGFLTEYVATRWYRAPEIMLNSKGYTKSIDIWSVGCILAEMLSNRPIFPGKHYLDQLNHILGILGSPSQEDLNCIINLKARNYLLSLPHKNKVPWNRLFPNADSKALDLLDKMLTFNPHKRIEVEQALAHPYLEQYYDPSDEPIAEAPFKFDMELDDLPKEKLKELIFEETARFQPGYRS

Counter-ions that a name gives are not always drawn.

Take `CCn1cc(-c2cnc3ccc(NC(=O)NCCCCc4ccccc4)nc3n2)cn1` [Compound 108, 1-[3-(1-Ethyl-1H-pyrazol-4-yl)-pyrido[2,3-b]pyrazin-6-yl]-3-(4-phenyl-butyl)-urea]: the melting point is 207 to 208 °C. This molecule yielded an IC50 at Erk2 of 4 nM. Molecule `O=C(NCCCCc1ccccc1)Nc1ccc2ncc(-c3cnn(CCN4CCOCC4)c3)nc2n1` [Compound 127, 1-{3-[1-(2-Morpholin-4-yl-ethyl)-1H-pyrazol-4-yl]-pyrido[2,3-b]pyrazin-6-yl}-3-(4-phenyl-butyl)-urea] returned a half-inhibitory concentration (IC50) at Erk2 of 5 nM.

The molecule `C[C@H](CCCc1ccccc1)NC(=O)Nc1ccc2ncc(-c3ccc(O)cc3)nc2n1` [Compound 147, 1-[3-(4-Hydroxy-phenyl)-pyrido[2,3-b]pyrazin-6-yl]-3-((R)-1-methyl-4-phenyl-butyl)-urea] had a melting point of 226 to 229 °C. Still for that read-out and setting: for `COc1ccc(-c2cnc3ccc(NC(=O)N[C@H](C)CCCc4ccccc4)nc3n2)cc1O` [Compound 148, 1-[3-(3-Hydroxy-4-methoxy-phenyl)-pyrido[2,3-b]pyrazin-6-yl]-3-((R)-1-methyl-4-phenyl-butyl)-urea] the value was 196 to 198 °C. The same measure, in the same setting: for `C[C@H](CCCc1ccccc1)NC(=O)Nc1ccc2ncc(-c3ccoc3)nc2n1` [Compound 149, 1-(3-Furan-3-yl-pyrido[2,3-b]pyrazin-6-yl)-3-((R)-1-methyl-4-phenyl-butyl)-urea] the value was 218 to 220 °C.

`C[C@H](CCCc1ccccc1)NC(=O)Nc1ccc2ncc(-c3cccnc3)nc2n1` [Compound 150, 1-((R)-1-Methyl-4-phenyl-butyl)-3-(3-pyridin-3-yl-pyrido[2,3-b]pyrazin-6-yl)-urea]: the melting point was in the range of 218 to 220 °C.

Take `COc1ccc(-c2cnc3ccc(NC(=O)NCCCCc4ccccc4)nc3n2)cc1O` [Compound 151, 1-[3-(3-Hydroxy-4-methoxy-phenyl)-pyrido[2,3-b]pyrazin-6-yl]-3-(4-phenyl-butyl)-urea]: the melting point was 230 to 232 °C. Same read-out and setting: with `O=C(NCCCCc1ccccc1)Nc1ccc2ncc(-c3ccoc3)nc2n1` [Compound 152, 1-(3-Furan-3-yl-pyrido[2,3-b]pyrazin-6-yl)-3-(4-phenyl-butyl)-urea] the figure was 212 to 216 °C; with `C[C@H](CCCc1ccccc1)NC(=O)Nc1ccc2ncc(N3CCN(C)CC3)nc2n1` [Compound 153, 1-((R)-1-Methyl-4-phenyl-butyl)-3-[3-(4-methyl-piperazin-1-yl)-pyrido[2,3-b]pyrazin-6-yl]-urea], 172 to 175 °C; with `C[C@H](CCCc1ccccc1)NC(=O)Nc1ccc2ncc(N3CCCCC3)nc2n1` [Compound 154, 1-((R)-1-Methyl-4-phenyl-butyl)-3-(3-piperidin-1-yl-pyrido[2,3-b]pyrazin-6-yl)-urea], 171 to 174 °C. Turning to `COc1cc(CO)ccc1-c1cnc2ccc(NC(=O)N[C@H](C)CCCc3ccccc3)nc2n1` [Compound 156, 1-[3-(4-Hydroxymethyl-2-methoxy-phenyl)-pyrido[2,3-b]pyrazin-6-yl]-3-((R)-1-methyl-4-phenyl-butyl)-urea], the melting point is 168 to 170 °C. Inhibition on Erk2 was half-maximal at 1 nM (IC50).

As for `C[C@H](CCCc1ccccc1)NC(=O)Nc1ccc2ncc(-c3ccncc3)nc2n1` [Compound 157, 1-((R)-1-Methyl-4-phenyl-butyl)-3-(3-pyridin-4-yl-pyrido[2,3-b]pyrazin-6-yl)-urea], the melting point lay within 223 to 226 °C. The IC50 on Erk2 was determined as 2 nM.

`COc1c(CO)cccc1-c1cnc2ccc(NC(=O)N[C@H](C)CCCc3ccccc3)nc2n1` [Compound 158, 1-[3-(3-Hydroxymethyl-2-methoxy-phenyl)-pyrido[2,3-b]pyrazin-6-yl]-3-((R)-1-methyl-4-phenyl-butyl)-urea] registered a melting point of 168 to 170 °C. For the same molecule, the half-maximal inhibitory concentration (IC50) at Erk2 worked out at 1 nM. For `COc1ncccc1-c1cnc2ccc(NC(=O)N[C@H](C)CCCc3ccccc3)nc2n1` [Compound 161, 1-[3-(2-Methoxy-pyridin-3-yl)-pyrido[2,3-b]pyrazin-6-yl]-3-((R)-1-methyl-4-phenyl-butyl)-urea], in that order: 161 to 163 °C and 2 nM. Molecule `O=C(NCCCCc1ccccc1)Nc1ccc2ncc(-c3cnn(CCCO)c3)nc2n1` [Compound 162, 1-{3-[1-(3-Hydroxy-propyl)-1H-pyrazol-4-yl]-pyrido[2,3-b]pyrazin-6-yl}-3-(4-phenyl-butyl)-urea] yielded an IC50 against Erk2 of 2 nM. `C[C@H](CCCc1ccccc1)NC(=O)Nc1ccc2ncc(N3CCOCC3)nc2n1` [Compound 166, 1-((R)-1-Methyl-4-phenyl-butyl)-3-(3-morpholin-4-yl-pyrido[2,3-b]pyrazin-6-yl)-urea] registered a melting point of 201 to 203 °C. For the same molecule, at Erk2, the midpoint of inhibition, the IC50, lay at 3 nM. For `C[C@H](CCCc1ccccc1)NC(=O)Nc1ccc2ncc(-c3ccc(CO)cc3)nc2n1` [Compound 167, 1-[3-(4-Hydroxymethyl-phenyl)-pyrido[2,3-b]pyrazin-6-yl]-3-((R)-1-methyl-4-phenyl-butyl)-urea], in that order: 187 to 190 °C and 3 nM. With `C[C@H](CCCc1ccccc1)NC(=O)Nc1ccc2ncc(-c3cn[nH]c3)nc2n1` [Compound 171, 1-((R)-1-Methyl-4-phenyl-butyl)-3-[3-(1H-pyrazol-4-yl)-pyrido[2,3-b]pyrazin-6-yl]-urea], the melting point was 274 to 276 °C. The IC50 against Erk2 turned out to be 4 nM.

In turn, `O=C(NCCCCc1ccccc1)Nc1ccc2ncc(N3CCCC3)nc2n1` [Compound 172, 1-(4-Phenyl-butyl)-3-(3-pyrrolidin-1-yl-pyrido[2,3-b]pyrazin-6-yl)-urea] gave a melting point of 204 to 206 °C. This molecule also yielded an IC50 against Erk2 of 5 nM. At Erk2, `O=C(NCCCCc1ccccc1)Nc1ccc2ncc(-c3ccc(O)c(F)c3)nc2n1` [Compound 174, 1-[3-(3-Fluoro-4-hydroxy-phenyl)-pyrido[2,3-b]-pyrazin-6-yl]-3-(4-phenyl-butyl)-urea] came in with an IC50 of 6 nM. The molecule `O=C(NCCCCc1ccccc1)Nc1ccc2ncc(-c3cccc(CO)c3)nc2n1` [Compound 175, 1-[3-(3-Hydroxymethyl-phenyl)-pyrido[2,3-b]pyrazin-6-yl]-3-(4-phenyl-butyl)-urea] gave an IC50 against Erk2 of 6 nM.

Regarding `C[C@H](CCCc1ccccc1)NC(=O)Nc1ccc2ncc(-c3cnn(C)c3)nc2n1` [Compound 180, 1-((R)-1-Methyl-4-phenyl-butyl)-3-[3-(1-methyl-1H-pyrazol-4-yl)-pyrido[2,3-b]pyrazin-6-yl]urea], the IC50 at Erk2 came out at 6 nM. On Erk2, `C[C@H](CCCc1ccccc1)NC(=O)Nc1ccc2ncc(-c3cccc(CO)c3)nc2n1` [Compound 181, 1-[3-(3-Hydroxymethyl-phenyl)-pyrido[2,3-b]pyrazin-6-yl]-3-((R)-1-methyl-4-phenyl-butyl)-urea] showed an IC50 of 6 nM. `O=C(NCCCCc1ccccc1)Nc1ccc2ncc(-c3ccc(CO)cc3)nc2n1` [Compound 182, 1-[3-(4-Hydroxymethyl-phenyl)-pyrido[2,3-b]pyrazin-6-yl]-3-(4-phenyl-butyl)-urea] registered a melting point of 213 to 215 °C. The molecule `O=C(NCCCCc1ccccc1)Nc1ccc2ncc(-c3ccncc3)nc2n1` [Compound 184, 1-(4-Phenyl-butyl)-3-(3-pyridin-4-yl-pyrido[2,3-b]pyrazin-6-yl)-urea] came in with a melting point of 219 to 222 °C. With `C[C@H](CCCc1ccccc1)NC(=O)Nc1ccc2ncc(-c3ccc(O)c(F)c3)nc2n1` [Compound 185, 1-[3-(3-Fluoro-4-hydroxy-phenyl)-pyrido[2,3-b]pyrazin-6-yl]-3-((R)-1-methyl-4-phenyl-butyl)-urea], the melting point is 220 to 222 °C.

For the molecule `O=C(NCCCCc1ccccc1)Nc1ccc2ncc(-c3ccc(O)c(Cl)c3)nc2n1` [Compound 186, 1-[3-(3-Chloro-4-hydroxy-phenyl)-pyrido[2,3-b]pyrazin-6-yl]-3-(4-phenyl-butyl)-urea], the melting point fell in the range of 241 to 243 °C. The molecule `O=C(NCCCCc1ccccc1)Nc1ccc2ncc(-c3cnn(CCO)c3)nc2n1` [Compound 189, 1-{3-[1-(2-Hydroxy-ethyl)-1H-pyrazol-4-yl]-pyrido[2,3-b]pyrazin-6-yl}-3-(4-phenyl-butyl)-urea] came in with an IC50 on Erk2 of 4 nM. The same measure, in the same setting: for `COc1cc(-c2cnc3ccc(NC(=O)NCCCCc4ccccc4)nc3n2)ccc1C(=O)O` [Compound 194, 2-Methoxy-4-{6-[3-(4-phenyl-butyl)-ureido]-pyrido[2,3-b]pyrazin-3-yl}-benzoic acid] the value was 1 nM; for `C[C@H](CCCc1ccccc1)NC(=O)Nc1ccc2ncc(-c3ccc(C[C@H](N)C(=O)O)cc3)nc2n1` [Compound 195, (S)-2-Amino-3-(4-{6-[3-((R)-1-methyl-4-phenyl-butyl)-ureido]-pyrido[2,3-b]pyrazin-3-yl}-phenyl)-propionic acid; hydrochloride], 1 nM. In turn, `O=C(NCCCCc1ccccc1)Nc1ccc2ncc(-c3ccc(OCCN4CCOCC4)cc3)nc2n1` [Compound 202, 1-{3-[4-(2-Morpholin-4-yl-ethoxy)-phenyl]-pyrido[2,3-b]pyrazin-6-yl}-3-(4-phenyl-butyl)-urea] gave a 50% inhibitory concentration (IC50) against Erk2 of 41 nM.

On to `COCc1cccc(-c2cnc3ccc(NC(=O)N[C@H](C)CCCc4ccccc4)nc3n2)c1` [Compound 203, 1-[3-(3-Methoxymethyl-phenyl)-pyrido[2,3-b]pyrazin-6-yl]-3-((R)-1-methyl-4-phenyl-butyl)-urea], for which, on Erk2, the 50% inhibitory concentration (IC50) was 24 nM.

The term IC50 denotes the concentration that gives 50% inhibition. A lower IC50 goes with higher potency. A word on the melting point: it is the temperature, or range, at which the solid turns liquid.

(Values after patent publication US8791118B2, “Pyridopyrazines as highly selective ras-Raf-Mek-Erk signal transduction pathway inhibitors” (Aeterna Zentaris GmbH, priority 2011, dated 2014).)
